Measurements as given in PubChem BioAssay (NCI).
Several values for one entry are separate records, joined by “and”; a condition that tells them apart may be missing. Identical values can stand only once.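 Each compound was tested at five concentrations against cells in 96-well plates for 48 hours. GI50 is the concentration that inhibits growth by half. TGI: total growth inhibition.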

Tested on: MDA-MB-468 breast
Assay: DTP human tumour cell line panel, 48 h

| SMILES | GI50 | TGI |
| --- | --- | --- |
| COc1cc2c(c(OC)n1)[C@]1(O)[C@H](O)[C@H](CN(C)C)[C@@H](c3ccccc3)[C@]1(c1ccc(C#N)cc1)O2 | < 15.7 nM and 15.8 nM | 482 nM and 1440 nM |
| COc1cc2c3c(n(CCCN4CCC[C@H]4C(N)=O)c(=O)c2cc1OC)-c1cc2c(cc1C3=O)OCO2 | 45.6 nM | 316 nM |
| O=C(Nc1ccc(-n2cc(-c3ccncc3)c(-c3ccc(Cl)c(O)c3)n2)cc1)Nc1ccc(Cl)c(C(F)(F)F)c1 | 1460 nM | 3400 nM |
| Cc1cc[c-]cc1.Fc1c[c-]c(-c2ccccn2)c(F)c1.[Pt+2].c1ccc(P(C[PH+](c2ccccc2)c2ccccc2)c2ccccc2)cc1 | 1550 nM | 5550 nM |
| Cn1cc(C2=C(c3cn(CCCCCN)c4ccccc34)C(=O)NC2=O)c2ccccc21 | 7540 nM | > 25000 nM |
| CCc1ccccc1NC(=O)c1sc2nc3c(cc2c1N)C(=O)CCC3 | 235 nM | 44700 nM |
| O=C(O)c1ccc(-n2c(=O)n(-c3cccc(C(F)(F)F)c3)c(=O)c3cc(-c4ccc(F)cc4F)ccc32)cc1 | 2160 nM | 5940 nM |
| CCn1c(CO)nn(-c2cc(O[C@@H](C)C(F)(F)F)c(C(=O)Nc3c(F)cccc3Cl)cc2F)c1=O | 3280 nM | > 72300 nM |
| CCC(C)(C)c1ccc(OCCCCCCN2CCNCC2)cc1 | 1760 nM | 3470 nM |
| COc1ccc(-c2oc3cc(O)c(OC)c(O)c3c(=O)c2OC)cc1O | 312 nM | 4140 nM |
| COc1ccc2c(c1)C(C)Cc1c(ncnc1-n1c(C)nc3ccccc31)N2C (stereo unspecified) | 3050 nM | 20500 nM |
| O=[N+]([O-])c1ccc2c(c1)C(c1ccccc1Cl)=Nc1cn[nH]c1N2 | 12500 nM | > 25000 nM |
| O=C(/C=C/c1cc(CN2CCOCC2)c(O)c2ncccc12)c1cc(CN2CCOCC2)c(O)c2ncccc12 | 34.6 nM | 683 nM |
| CC(=O)O[C@H](C[C@H](C(C)C)N(C)C(=O)[C@@H](NC(=O)[C@H]1CCCCN1C)C(C)C)c1nc(C(=O)N[C@@H](Cc2ccccc2)C[C@H](C)C(=O)O)c(CCOCc2ccccc2)s1 | < 1 nM | > 10000 nM |
| O=C(COc1ccc(/C=C2\CSc3ccccc3C2=O)cc1)Nc1nccs1 | 1840 nM | 4000 nM |
| COc1cc(C2=C(c3cn(C)c4ccccc34)COC2=O)cc(OC)c1OC | 31.9 nM | 380 nM |
| C[C@]12CC[C@@H]3c4ccc(O)cc4CC[C@H]3[C@@H]1CC[C@@H]2NS(=O)(=O)c1cccc(F)c1 | 2420 nM | 9250 nM |

| SMILES | GI50 | TGI |
| --- | --- | --- |
| COc1cc2ncn(-c3cc(OCCc4ccccc4)c(C(N)=O)s3)c2cc1OC | 3350 nM | 24200 nM |
| COc1ccc2ncn(-c3cc(O[C@H](C)c4ccccc4Cl)c(C(N)=O)s3)c2c1 | 6.67 nM | 40 nM |
| CN1CCN(c2ccc(Nc3nc(NCCCNS(=O)(=O)c4ccc(Cl)cc4)c4sccc4n3)cc2)CC1 | 4030 nM | 16300 nM |
| NC(N)=NCCCCCNc1noc(Cc2c[nH]c3cc(Br)ccc23)n1 | 2010 nM | 7040 nM |
| COCCOc1cnc2ccn([C@H](C)c3nnc4c(F)cc(-c5cnn(C)c5)cn34)c(=O)c2c1 | > 100000 nM | > 100000 nM |
| CC(C)N=c1cc2n(-c3ccc(Cl)cc3)c3ccccc3nc-2cc1Nc1ccc(Cl)cc1 | 560 nM | 1670 nM |
| NC(CS/C(Cl)=C/Cl)C(=O)O (stereo unspecified) | 2990 nM | 16700 nM |
| Cc1cc(N/N=C/c2nc(-c3ccc(Br)cc3)oc2C)c2cc(Br)ccc2n1 | 1750 nM | 4850 nM |
| CC(C)S(=O)(=O)c1ccccc1Nc1nc(Nc2cccc(NC(=O)CN)c2)ncc1Cl | 99.9 nM | 1860 nM |
| Cc1ccc(S(=O)(=O)NCCNc2nccc(-c3c(-c4ccc(F)cc4)nc4sccn34)n2)cc1 | 4200 nM | > 100000 nM |
| C[C@]12CCc3nc(Nc4ccccc4)sc3C1=CC[C@@H]1[C@@H]2CC[C@]2(C)/C(=N/NC(N)=S)CC[C@@H]12 | 1870 nM | 5380 nM |
| COc1cc(OC)c(S(N)(=O)=O)cc1C(=O)/C=C/c1ccc(Cl)cc1 | 1450 nM | 3080 nM |
| CN(CCCNC(=O)Cc1ccc2ccc3cccc4ccc1c2c34)CCCNc1cc(-c2ccc3ccccc3c2)nc2ccccc12 | 1420 nM | 2750 nM |
| C=C1C(=O)O[C@H]2[C@H]1CC/C(COC(=O)c1ccc(Cl)nc1)=C\CC[C@@]1(C)O[C@@H]21 | 1210 nM | 3500 nM |
| Nc1nc(SN=Nc2ccc(S(N)(=O)=O)cc2)c2[nH]cnc2n1 | 284 nM | 4110 nM |
| O=C(Nc1ccc(Br)cc1)c1ccc(Cl)c(Cl)c1 | 7500 nM | > 100000 nM |
